Experimental data reported in patent US20210317099A1, “SAFER, POTENT, AND FAST ACTING ANTIMICROBIAL AGENTS” (Purdue Research Foundation, priority 2020, published 2021).

How the values were obtained:
[1] = system: murine macrophage (J774) cell line; assay: In vitro cytotoxicity, MTS assay; assay type: cell-based; conditions: J774, 24 hours incubation
Method: Compounds were assayed against a murine macrophage (J774) cell line to determine their in vitro potential toxic effect. Cells were cultured in Dulbecco's Modified Eagle Medium (DMEM) supplemented with 10% FBS at 37° C. with 5% CO2. Control cells received DMSO alone at a concentration equal to that in drug-treated cell samples. The cells were incubated with the compounds (in triplicate) in a 96-well plate at 37° C. with 5% CO2 for 24 hours. The assay reagent MTS; 3-(4,5-dimethylthiazol-2-yl)-5-(3-carboxymethoxyphenyl)-2-(4-sulfophenyl)-2H-tetrazolium) (Promega, Madison, Wis., USA) was subsequently added and the plate was incubated for three to four hours. Absorbance readings (at OD490) were recorded using a kinetic microplate reader (Molecular Devices, Sunnyvale, Calif., USA). The quantity of viable cells after treatment with each compound was expressed as a percentage of the viability relative to DMSO-treated control cells (average of triplicate wells±standard deviation). FIG. 5. […] Results are presented as percent viable mammalian cells (measured as average absorbance ratio relative to DMSO). The absorbance values represent an average of a minimum of three samples analyzed for each compound. Error bars represent standard deviation values for the absorbance values.

[2] = system: human keratinocytes cell line (HaCaT cells); assay: In vitro cytotoxicity, MTS assay; assay type: cell-based; conditions: 2 h
Method: Compounds 144, 148, 149, 151, 155, and 158 were assayed (at concentrations of 16, 32, and 64 μg/mL) against a human keratinocytes cell line (HaCaT cells) to determine their in vitro potential toxic effect. Briefly, cells were cultured in Dulbecco's Modified Eagle Medium (DMEM) supplemented with 10% fetal bovine serum (FBS) and penicillin-streptomycin at 37° C. in presence of 5% CO2. Compounds were added in the first row of the 96-well plate. Control cells received DMSO alone at a concentration equivalent to that in drug-treated wells. The cells were incubated with the compounds (in triplicate) in a 96-well plate at 37° C. in presence of 5% CO2 for two hours. The assay reagent MTS 3-(4,5-dimethylthiazol-2-yl)-5-(3-carboxymethoxyphenyl)-2-(4-sulfophenyl)-2H-tetrazolium) (Promega, Madison, Wis., USA) was subsequently added and the plate was incubated for three to four hours. Absorbance readings (at OD490) were recorded using a kinetic microplate reader (Molecular Devices, Sunnyvale, Calif., USA). The quantity of viable cells after treatment with each compound was expressed as a percentage of the viability to DMSO-treated control cells (average of triplicate wells±standard deviation).
FIG. 2. Analyzing the toxicity of compounds 144, 148, 149, 151, 155 and 158 (tested in triplicates at 16, 32 and 64 μg/mL) against human keratinocytes cells (HaCaT) using the MTS 3-(4,5-dimethylthiazol-2-yl)-5-(3-carboxymethoxyphenyl)-2-(4-sulfophenyl)-2H-tetrazolium) assay. Results are presented as percent viable cells relative to DMSO (negative control to determine a baseline measurement for the cytotoxic impact of each compound). The absorbance values represent an average of three samples analyzed for each compound. Error bars represent standard deviation values. The data were analyzed via a two-way ANOVA with post-hoc Dunnett's test for multiple comparisons. An asterisk (*) denotes statistical significance (P<0.05) between results for compounds and DMSO.

| Structure (SMILES) | concentration tolerable to J774 cells [1] [ng/mL] | tolerable concentration as multiple of MIC against MRSA [2] [times] |
| --- | --- | --- |
| C=C(C(=O)OC)C(c1ccc2ccccc2c1)C(O)c1cccc2ccccc12 (centres unmarked) [Compound 148] | ≤ 8000 |  |
| C=C1C(=O)O[C@H](c2ccccc2)[C@@H]1c1cccc2ccccc12 [Compound 151] |  | 16 to 32 |
